The target in one assay is T1, DNA polymerase Polθ (Homo sapiens, UniProt O75417).
T1 construct: gene POLQ; full-length (residues 2–2590)
As to the kind of experiment: PicoGreen DNA primer extension assay with recombinant full-length enzyme; supported by DNA-dependent DSF stabilisation and mechanism-of-action kinetics. Format: biochemical.

Another assay addresses T2, Polα (Homo sapiens, UniProt P09884).
T2 construct: gene POLA1
T2 sequence (P09884 1-1462): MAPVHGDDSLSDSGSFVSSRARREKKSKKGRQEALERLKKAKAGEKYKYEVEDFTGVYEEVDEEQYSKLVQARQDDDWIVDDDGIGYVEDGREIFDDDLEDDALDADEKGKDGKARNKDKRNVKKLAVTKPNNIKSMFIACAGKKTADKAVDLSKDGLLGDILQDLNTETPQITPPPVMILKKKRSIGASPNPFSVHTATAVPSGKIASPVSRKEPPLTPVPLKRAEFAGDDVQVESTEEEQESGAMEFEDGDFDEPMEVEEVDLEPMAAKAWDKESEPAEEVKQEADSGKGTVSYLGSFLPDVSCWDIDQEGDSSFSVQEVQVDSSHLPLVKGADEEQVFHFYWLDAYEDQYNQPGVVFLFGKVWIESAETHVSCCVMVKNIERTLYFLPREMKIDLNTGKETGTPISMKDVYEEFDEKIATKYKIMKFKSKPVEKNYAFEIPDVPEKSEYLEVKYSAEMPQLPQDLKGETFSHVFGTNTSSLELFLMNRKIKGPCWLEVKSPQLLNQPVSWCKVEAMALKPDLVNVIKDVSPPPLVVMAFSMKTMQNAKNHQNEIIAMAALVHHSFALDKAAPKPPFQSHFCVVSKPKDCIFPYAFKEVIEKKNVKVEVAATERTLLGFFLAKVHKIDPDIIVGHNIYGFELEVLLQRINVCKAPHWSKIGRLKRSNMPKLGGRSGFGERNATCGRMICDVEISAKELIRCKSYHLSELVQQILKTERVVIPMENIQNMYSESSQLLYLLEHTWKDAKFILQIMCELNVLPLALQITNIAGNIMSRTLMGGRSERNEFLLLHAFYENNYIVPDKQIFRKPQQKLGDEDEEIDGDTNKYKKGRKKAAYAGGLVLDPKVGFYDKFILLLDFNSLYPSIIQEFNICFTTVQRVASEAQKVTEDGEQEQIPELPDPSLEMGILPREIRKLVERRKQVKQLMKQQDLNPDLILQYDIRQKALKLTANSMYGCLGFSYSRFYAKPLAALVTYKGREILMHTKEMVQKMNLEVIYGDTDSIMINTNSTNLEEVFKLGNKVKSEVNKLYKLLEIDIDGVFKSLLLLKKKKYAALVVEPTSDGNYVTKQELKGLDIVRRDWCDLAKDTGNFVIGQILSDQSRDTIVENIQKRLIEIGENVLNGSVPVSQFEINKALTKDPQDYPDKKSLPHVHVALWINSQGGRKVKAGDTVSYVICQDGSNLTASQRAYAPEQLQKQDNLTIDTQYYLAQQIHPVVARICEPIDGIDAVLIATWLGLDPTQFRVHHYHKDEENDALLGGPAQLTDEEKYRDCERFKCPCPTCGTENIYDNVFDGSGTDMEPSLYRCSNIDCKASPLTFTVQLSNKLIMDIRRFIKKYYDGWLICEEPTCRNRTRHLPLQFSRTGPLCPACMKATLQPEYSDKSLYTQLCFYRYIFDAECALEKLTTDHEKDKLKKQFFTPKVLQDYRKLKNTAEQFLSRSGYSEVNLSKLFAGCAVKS
As to the kind of experiment: biochemical. Further details: inhibition of human DNA polymerases, selectivity assay.

Another assay addresses T3, Polγ (Homo sapiens, UniProt P54098).
T3 construct: gene POLG
T3 sequence (P54098 1-1239): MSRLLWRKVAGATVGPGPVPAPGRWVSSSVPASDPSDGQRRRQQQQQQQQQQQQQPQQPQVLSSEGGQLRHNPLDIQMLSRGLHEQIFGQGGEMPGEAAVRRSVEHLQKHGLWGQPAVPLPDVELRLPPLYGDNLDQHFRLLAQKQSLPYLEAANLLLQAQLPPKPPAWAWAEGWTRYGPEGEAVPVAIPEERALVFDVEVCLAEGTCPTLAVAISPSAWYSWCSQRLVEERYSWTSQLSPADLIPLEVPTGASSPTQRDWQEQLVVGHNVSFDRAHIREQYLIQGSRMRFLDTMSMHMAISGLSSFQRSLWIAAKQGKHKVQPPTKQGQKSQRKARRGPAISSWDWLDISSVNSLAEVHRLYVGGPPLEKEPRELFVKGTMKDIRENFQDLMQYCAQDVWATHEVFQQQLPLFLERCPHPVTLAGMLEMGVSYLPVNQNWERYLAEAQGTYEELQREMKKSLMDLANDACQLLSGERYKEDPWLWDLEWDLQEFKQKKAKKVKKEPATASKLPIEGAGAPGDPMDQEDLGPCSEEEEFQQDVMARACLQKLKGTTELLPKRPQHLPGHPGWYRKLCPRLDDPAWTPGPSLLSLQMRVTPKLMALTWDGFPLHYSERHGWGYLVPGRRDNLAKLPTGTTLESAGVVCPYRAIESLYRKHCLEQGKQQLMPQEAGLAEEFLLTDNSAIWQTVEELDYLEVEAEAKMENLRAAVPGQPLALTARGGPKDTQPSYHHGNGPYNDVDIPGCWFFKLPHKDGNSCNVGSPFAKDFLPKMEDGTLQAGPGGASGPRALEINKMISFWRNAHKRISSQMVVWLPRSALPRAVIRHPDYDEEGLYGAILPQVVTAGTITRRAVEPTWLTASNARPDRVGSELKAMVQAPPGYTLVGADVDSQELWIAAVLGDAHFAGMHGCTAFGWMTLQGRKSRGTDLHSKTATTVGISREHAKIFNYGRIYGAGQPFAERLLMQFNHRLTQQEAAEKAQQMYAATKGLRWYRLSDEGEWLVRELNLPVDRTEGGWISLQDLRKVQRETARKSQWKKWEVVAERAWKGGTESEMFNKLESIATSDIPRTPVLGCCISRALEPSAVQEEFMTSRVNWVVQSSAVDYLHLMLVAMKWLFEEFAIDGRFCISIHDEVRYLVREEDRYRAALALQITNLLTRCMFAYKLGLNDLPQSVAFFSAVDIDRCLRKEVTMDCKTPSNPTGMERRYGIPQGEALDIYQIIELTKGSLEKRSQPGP
Briefly: biochemical. Details: inhibition of human DNA polymerases, selectivity assay.

The target of a further assay is T4, Polη (Homo sapiens, UniProt Q9Y253).
T4 construct: gene POLH
T4 sequence (Q9Y253 1-713): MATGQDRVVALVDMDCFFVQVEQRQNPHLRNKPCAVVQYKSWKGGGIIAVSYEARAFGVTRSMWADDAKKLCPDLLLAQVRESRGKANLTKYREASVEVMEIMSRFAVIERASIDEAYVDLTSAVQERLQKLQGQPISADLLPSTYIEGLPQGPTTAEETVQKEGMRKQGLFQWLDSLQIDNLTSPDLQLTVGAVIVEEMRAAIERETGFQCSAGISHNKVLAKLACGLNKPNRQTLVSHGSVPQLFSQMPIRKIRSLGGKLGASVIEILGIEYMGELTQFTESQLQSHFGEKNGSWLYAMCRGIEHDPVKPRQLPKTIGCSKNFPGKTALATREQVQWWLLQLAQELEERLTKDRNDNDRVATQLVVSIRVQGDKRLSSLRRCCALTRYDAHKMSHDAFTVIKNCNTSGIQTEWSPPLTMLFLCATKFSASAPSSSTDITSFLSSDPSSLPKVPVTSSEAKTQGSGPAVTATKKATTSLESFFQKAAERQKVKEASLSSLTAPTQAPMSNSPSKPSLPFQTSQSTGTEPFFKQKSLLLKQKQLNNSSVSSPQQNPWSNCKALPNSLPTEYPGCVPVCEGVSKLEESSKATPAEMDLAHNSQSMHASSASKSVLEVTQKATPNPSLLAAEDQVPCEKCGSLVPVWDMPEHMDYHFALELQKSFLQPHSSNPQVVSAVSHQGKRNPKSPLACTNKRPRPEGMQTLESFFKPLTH
Briefly: biochemical. Details: inhibition of human DNA polymerases, selectivity assay.

The target in another assay is T5, Polν (Homo sapiens, UniProt Q7Z5Q5).
T5 construct: gene POLN
T5 sequence (Q7Z5Q5 1-900): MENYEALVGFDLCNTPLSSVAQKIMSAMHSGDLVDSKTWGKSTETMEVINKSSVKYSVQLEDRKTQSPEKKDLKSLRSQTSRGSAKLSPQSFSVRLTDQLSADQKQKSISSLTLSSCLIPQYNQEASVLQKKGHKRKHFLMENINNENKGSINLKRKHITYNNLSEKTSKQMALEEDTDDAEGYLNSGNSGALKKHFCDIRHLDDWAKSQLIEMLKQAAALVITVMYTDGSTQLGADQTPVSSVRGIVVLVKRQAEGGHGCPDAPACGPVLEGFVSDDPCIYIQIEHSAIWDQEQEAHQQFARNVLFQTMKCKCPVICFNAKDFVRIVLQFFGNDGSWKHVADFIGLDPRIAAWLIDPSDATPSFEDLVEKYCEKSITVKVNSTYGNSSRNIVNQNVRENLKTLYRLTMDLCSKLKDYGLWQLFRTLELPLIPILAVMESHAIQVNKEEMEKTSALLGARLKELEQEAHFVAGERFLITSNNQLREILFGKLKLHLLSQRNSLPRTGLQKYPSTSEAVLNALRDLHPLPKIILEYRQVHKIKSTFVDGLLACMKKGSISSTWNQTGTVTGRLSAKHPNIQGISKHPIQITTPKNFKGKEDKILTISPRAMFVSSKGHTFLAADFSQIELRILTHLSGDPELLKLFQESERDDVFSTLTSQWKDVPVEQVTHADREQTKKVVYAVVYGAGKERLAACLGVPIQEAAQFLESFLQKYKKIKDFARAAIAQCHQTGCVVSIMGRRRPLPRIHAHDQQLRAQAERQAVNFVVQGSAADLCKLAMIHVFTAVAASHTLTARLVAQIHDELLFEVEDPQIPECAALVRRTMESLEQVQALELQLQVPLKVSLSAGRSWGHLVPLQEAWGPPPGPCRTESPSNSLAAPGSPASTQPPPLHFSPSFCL
Briefly: biochemical. Details: inhibition of human DNA polymerases, selectivity assay.

T1 sequence (O75417 2-2590): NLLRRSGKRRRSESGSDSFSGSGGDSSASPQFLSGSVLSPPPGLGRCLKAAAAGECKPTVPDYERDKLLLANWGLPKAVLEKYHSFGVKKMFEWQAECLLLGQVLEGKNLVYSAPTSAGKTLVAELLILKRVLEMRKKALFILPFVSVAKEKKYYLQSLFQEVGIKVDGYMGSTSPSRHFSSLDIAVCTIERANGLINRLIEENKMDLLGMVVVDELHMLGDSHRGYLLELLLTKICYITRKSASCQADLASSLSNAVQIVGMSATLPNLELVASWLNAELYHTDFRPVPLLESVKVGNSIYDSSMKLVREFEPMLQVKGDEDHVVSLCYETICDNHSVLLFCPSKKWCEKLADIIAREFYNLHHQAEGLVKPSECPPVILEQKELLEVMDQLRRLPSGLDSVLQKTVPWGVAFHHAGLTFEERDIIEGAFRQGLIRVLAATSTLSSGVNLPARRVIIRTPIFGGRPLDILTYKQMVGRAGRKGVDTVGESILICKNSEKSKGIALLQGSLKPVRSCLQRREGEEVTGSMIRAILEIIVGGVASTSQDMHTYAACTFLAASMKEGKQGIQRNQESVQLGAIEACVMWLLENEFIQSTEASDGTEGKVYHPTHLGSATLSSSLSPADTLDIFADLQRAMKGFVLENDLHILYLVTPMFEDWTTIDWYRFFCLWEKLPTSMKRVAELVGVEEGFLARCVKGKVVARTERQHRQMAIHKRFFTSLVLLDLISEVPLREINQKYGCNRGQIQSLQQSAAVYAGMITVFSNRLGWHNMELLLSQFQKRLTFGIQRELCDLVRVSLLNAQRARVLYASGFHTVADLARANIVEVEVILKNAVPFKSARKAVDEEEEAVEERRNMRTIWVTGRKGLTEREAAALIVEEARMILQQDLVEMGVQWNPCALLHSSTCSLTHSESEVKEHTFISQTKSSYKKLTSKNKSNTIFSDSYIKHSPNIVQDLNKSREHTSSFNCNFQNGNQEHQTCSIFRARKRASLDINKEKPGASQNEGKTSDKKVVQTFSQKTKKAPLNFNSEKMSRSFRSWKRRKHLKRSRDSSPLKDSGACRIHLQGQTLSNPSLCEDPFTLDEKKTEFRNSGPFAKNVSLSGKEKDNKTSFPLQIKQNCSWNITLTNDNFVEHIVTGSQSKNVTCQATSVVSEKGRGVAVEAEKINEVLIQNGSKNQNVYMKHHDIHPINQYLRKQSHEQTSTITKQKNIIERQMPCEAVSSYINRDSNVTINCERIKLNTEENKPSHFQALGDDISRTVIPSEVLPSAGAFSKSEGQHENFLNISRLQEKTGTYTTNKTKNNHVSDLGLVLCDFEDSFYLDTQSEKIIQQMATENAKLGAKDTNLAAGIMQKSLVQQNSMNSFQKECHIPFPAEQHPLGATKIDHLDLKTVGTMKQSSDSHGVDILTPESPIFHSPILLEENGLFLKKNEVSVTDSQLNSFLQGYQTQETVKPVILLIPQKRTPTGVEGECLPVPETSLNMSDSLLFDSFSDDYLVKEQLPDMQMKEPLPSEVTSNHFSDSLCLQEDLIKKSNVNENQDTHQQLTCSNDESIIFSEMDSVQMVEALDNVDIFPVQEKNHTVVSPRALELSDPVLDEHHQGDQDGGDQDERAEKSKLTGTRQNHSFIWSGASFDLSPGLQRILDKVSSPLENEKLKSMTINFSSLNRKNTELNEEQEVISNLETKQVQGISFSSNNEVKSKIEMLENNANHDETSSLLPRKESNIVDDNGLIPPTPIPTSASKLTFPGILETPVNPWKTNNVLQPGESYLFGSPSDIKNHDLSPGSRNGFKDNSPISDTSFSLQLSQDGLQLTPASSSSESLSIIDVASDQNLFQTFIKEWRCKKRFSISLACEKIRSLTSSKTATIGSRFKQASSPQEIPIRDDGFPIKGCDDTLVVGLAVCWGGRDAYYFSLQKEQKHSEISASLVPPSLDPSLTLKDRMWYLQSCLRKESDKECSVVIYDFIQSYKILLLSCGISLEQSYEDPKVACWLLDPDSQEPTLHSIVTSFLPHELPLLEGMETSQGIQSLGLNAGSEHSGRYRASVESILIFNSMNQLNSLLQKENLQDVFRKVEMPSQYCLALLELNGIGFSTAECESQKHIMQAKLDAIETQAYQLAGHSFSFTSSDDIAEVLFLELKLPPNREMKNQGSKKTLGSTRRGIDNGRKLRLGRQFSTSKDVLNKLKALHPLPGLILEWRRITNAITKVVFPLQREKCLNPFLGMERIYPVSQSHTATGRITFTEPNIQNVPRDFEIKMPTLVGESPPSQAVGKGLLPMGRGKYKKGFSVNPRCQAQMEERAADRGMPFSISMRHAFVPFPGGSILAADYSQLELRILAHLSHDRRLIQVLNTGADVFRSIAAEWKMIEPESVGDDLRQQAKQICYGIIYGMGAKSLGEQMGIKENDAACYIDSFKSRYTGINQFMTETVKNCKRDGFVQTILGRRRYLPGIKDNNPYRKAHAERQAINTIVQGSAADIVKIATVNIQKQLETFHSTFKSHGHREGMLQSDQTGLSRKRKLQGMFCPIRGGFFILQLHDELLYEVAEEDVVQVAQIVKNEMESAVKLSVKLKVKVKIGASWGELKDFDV

As usually defined, the IC50 is the point on the concentration scale where inhibition reaches its midpoint. For the compound `Cc1cccc(N(C)C(=O)[C@@H]2[C@H](O)CCN2c2nc(C)cc(C(F)(F)F)c2C#N)c1` [ART558], the IC50 at DNA polymerase Polθ is 0.0079 µM; against Polα it was above 100 µM; against Polγ it was above 100 µM; at Polη, above 100 µM; at Polν, above 100 µM.

These data come from paper PMC8211653, “Polθ inhibitors elicit BRCA-gene synthetic lethality and target PARP inhibitor resistance” (Nature Communications, 2021).
